Assay [1] has as its system chicken NPSR1. Kind of assay: pGL3-NFAT-RE-luciferase reporter assay. Format: cell-based. As to conditions: 2-APB (100 μM) added 0.5 h before cNPS20 (10 nM, 6 h); CHO cells expressing cNPSR1; P<0.01 vs. peptide treatment; Figure 4D. On the technique in general: In a reporter assay the amount or activity of a reporter protein is the signal.
Assay [2] relates to chicken NPSR1. Kind of assay: pGL3-CRE-luciferase reporter assay. As to conditions: H89 (10 μM) added 0.5 h before cNPS20 (10 nM, 6 h); CHO cells expressing cNPSR1; P<0.01 vs. peptide treatment; Figure 4E. Format: cell-based.
The test system of assay [3] is rodents. To be noted: central administration, cited from earlier work.
For assay [4], the system named is rats. As to conditions: ref Smith et al., 2006; cited from earlier work.
In assay [5] the test system is rats. As to conditions: administration of NPS, ref Zhang et al., 2014; cited from earlier work.
Assay [6] concerns chickens. As to conditions: ref Smith et al., 2006; cited from earlier work.

On to `NCCOB(c1ccccc1)c1ccccc1` [2-APB], for which the “Effect on cNPS20-induced NFAT-RE luciferase activity” value in assay [1] is “could block cNPS20-induced luciferase activity of CHO cells expressing cNPSR1”.

On to `O=S(=O)(NCCNC/C=C/c1ccc(Br)cc1)c1cccc2cnccc12` [H89], for which the “Effect on cNPS20-induced CRE luciferase activity” value in assay [2] was “significantly inhibited”.

Take “neuropeptide S (SFRNGVGSGIKKTSFRRAKS; printed: Ser-Phe-Arg-Asn-Gly- Val-Gly-Ser-Gly-Ile-Lys-Lys-Thr-Ser-Phe-Arg-Arg-Ala-Lys-Ser) [NPS]”: in assay [3] (ref Kushikata et al., 2011), the “Length of ketamine-induced anesthesia” value is given as “decreased the length of ketamine-induced anesthesia”. Moreover, in assay [3] (ref Okamura et al., 2011), the Memory entry was “enhanced memory”. Besides, the Anxiety-related effect result in assay [3] (ref Xu et al., 2004) is recorded as “anxiolytic effects”. Besides, in assay [4], the “ACTH and corticosterone secretion (hypothalamic-pituitary-adrenal axis activity)” value is “stimulation of adrenocorticotropic hormone (ACTH) and corticosterone secretion in rats”; the “Hypothalamus-pituitary-adrenal axis and food intake, rats” value is “stimulate the hypothalamus-pituitary-adrenal axis and inhibit food intake in rats and chickens”. In addition, in assay [5], the “Anxiolytic and antinociceptive effects” value is “anxiolytic, and antinociceptive effects in rats”. Besides, in assay [6], the “Hypothalamus-pituitary-adrenal axis and food intake, chickens” value is “stimulate the hypothalamus-pituitary-adrenal axis and inhibit food intake in rats and chickens”.
